Data from patent US20250144054A1, “SMALL MOLECULE STAT3 INHIBITOR FOR TREATING TRIPLE NEGATIVE BREAST CANCER” (UNIVERSITY OF MARYLAND, BALTIMORE, priority 2022, published 2025).

Tests used:
STAT3 [1] = assay: IL-6 induced STAT3 phosphorylation, Western blot, MDA-MB-231 cells; format: cell-based, human; conditions: pretreated 2 hours serum-free, 50 ng/ml IL-6 30 minutes
Method: (§1) (A) The chemical structures of LLL12B and LLL12. The carbamate ester bond of LLL12B is hydrolytically cleaved by the tumor-associated plasmin to release LLL12. (B) SUM159 cells were seeded in a 6-well plate and treated with LLL12B for 8 hours. Cells were stained with Phospho-Stat3 (Tyr705) and DAPI (indicated by arrows). Green: P-STAT3 (Y705); Blue: DAPI. T47D (C) and MDA-MB-231 (D) breast cancer cells were pretreated with DMSO or LLL12B in a serum-free medium for 2 hours and stimulated with 50 ng/ml of IL-6, IFN-γ, or EGF for additional 30 minutes. Cells were collected and analyzed by Western blot. GAPDH served as a protein loading control.
(§2) Western blot. Cells were collected and total protein was extracted using cell lysis buffer (Cell Signaling Technology, Danvers, MA, USA). Protein concentration was determined using the Pierce BCA Protein Assay Kit (Thermo Fisher Scientific, Waltham, MA, USA) according to the manufacturer's instructions. Equal amounts of protein were separated by 10% SDS-PAGE gels and transferred to PVDF membranes. Membranes were blocked in 5% non-fat milk at room temperature and probed with specific antibodies P-STAT3 (Y705), STAT3, Cyclin D1, Cleaved Caspase-3, P-STAT1 (Y701), STAT1, P-ERK, ERK or GAPDH (1:1000, Cell Signaling Technology, Danvers, MA, USA) at 4° C. overnight. […]

STAT1 = assay: IFN-γ induced STAT1 phosphorylation, Western blot, T47D cells; format: cell-based, human; conditions: pretreated 2 hours, 50 ng/ml IFN-γ 30 minutes
Method: as §1, §2

STAT3 [2] = assay: Western blot of P-STAT3 (Y705), STAT3, Cyclin D1, Cleaved Caspase-3 in SUM159 cells; format: cell-based, human; conditions: SUM159, overnight, vs DMSO
Method: (§3) (A) MDA-MB-231, SUM159, and 4T1 cell lines were treated with DMSO or LLL12B overnight and the expression levels of P-STAT3 (Y705), STAT3, Cyclin D1, and Cleaved Caspase-3 were analyzed by Western blot. GAPDH served as a protein loading control. (B) MDA-MB-231 cells were treated with DMSO or C188-9 overnight and the expression levels of P-STAT3 (Y705), STAT3, Cyclin D1, and Cleaved Caspase-3 were analyzed by Western blot. (C) MDA-MB-231, SUM159, and 4T1 cells were seeded in a 96-well plate and treated with DMSO or LLL12B for 5 hours and a Caspase-3/7 Fluorescence Assay Kit was used to detect the activation of caspase-3/7. (D) MDA-MB-231, SUM159, and 4T1 cell lines were treated with DMSO or LLL12B for 8-12 hours, and flow cytometry was performed to analyze annexin V and PI staining. The quantification of apoptotic cells was shown in the right panel. ** P<0.01, *** P<0.001 and ****P<0.0001.
(§4) SiRNA and transfection. STAT3 siRNA and Negative Control siRNA (Cell Signaling Technology, Danvers, MA, USA) were used to knock down STAT3 in MDA-MB-231, SUM159, and 4T1 cell lines. Cells were transfected with STAT3 siRNA or Negative Control siRNA using Lipofectamine RNAiMAX (Invitrogen, Carlsbad, CA, USA) according to the manufacturer's instructions. After 72 hours, cell viability was examined by MTT cell viability assay, and the transfection efficiency was examined by western blot.
as §2

STAT3 [3] = assay: Western blot of P-STAT3 (Y705), STAT3, Cyclin D1, Cleaved Caspase-3 in 4T1 cells; format: cell-based, murine; conditions: 4T1, overnight, vs DMSO
Method: as §3, §4, §2

4T1 cells = assay: Colony formation assay, 4T1 cells; format: cell-based, murine; conditions: 4T1, 24 hours treatment, 7 days drug-free, vs DMSO
Method: Colony formation assay. MDA-MB-231, SUM159, and 4T1 cells were seeded in a 6-well plate at a density of 1000 cells/well and treated with DMSO or LLL12B for 24 hours, and then cultured in a drug-free culture medium for 7 days. Colonies were fixed with methanol for 30 min and stained with 1% crystal violet in 25% methanol for 2 hours at room temperature.

[4] = test system: MDA-MB-231 orthotopic tumor; assay: Orthotopic mammary fat pad tumor model in vivo; set-up: species or system athymic nude mice
Method: Orthotopic mammary fat pad tumor model in vivo. All mice were used under guidelines approved by the IACUC of University of Maryland School of Medicine. 6-week-old female athymic nude mice were purchased from The Jackson Laboratory (Bar Harbor, ME, USA). 2.5×10^6 MDA-MB-231 cells in 50 μl matrigel (BD Science, Franklin Lakes, NJ, USA) were inoculated into the 4th mammary fat pads bilaterally. After the tumor volume reached approximately 50 mm^3, mice were randomly divided into two groups (3 mice with 6 tumors in each group). LLL12B (2.5 mg/kg) or DMSO vehicle was administered daily by oral gavage for 28 days. Tumor size was measured by the length (L) and width (W) using a caliper ruler every 2 days. Tumor volume was calculated using 0.52×L×W^2. Body weight was monitored every 2 days. At the end of the experiment, tumors were removed and weighed. Part of the tumor tissue was lysed to detect the expression of P-STAT3 (Y705), STAT3, and Cyclin DI using Western blot analysis.
Female nude mice were implanted with MDA-MB-231 cells to establish an orthotopic tumor model to further evaluate LLL12B efficacy in vivo. MDA-MB-231 cells were inoculated into the 4th mammary fat pads and tumors were allowed to develop until the volume reached approximately 50 mm^3. Vehicle control or LLL12B (2.5 mg/kg) was administered once daily by oral gavage for 28 days.

HPAC cells = assay: MTT cell viability assay, HPAC cells; format: cell-based, human; conditions: 3 days
Method: The human pancreatic cancer cell lines HPAC and PANC-1 were seeded and allowed to attach for 24 hours. Then cells were treated with different concentrations of LLL12B for 3 days and the cell viability was determined by MTT cell viability assay.

medulloblastoma cells = conditions: refs [25,31]; cited from earlier work
STAT3 [5] = molecular target: STAT3 (Homo sapiens, UniProt P40763); conditions: refs [25,27,28]; cited from earlier work
STAT3 (Homo sapiens, UniProt P40763), sequence (P40763 whole entry, species assumed): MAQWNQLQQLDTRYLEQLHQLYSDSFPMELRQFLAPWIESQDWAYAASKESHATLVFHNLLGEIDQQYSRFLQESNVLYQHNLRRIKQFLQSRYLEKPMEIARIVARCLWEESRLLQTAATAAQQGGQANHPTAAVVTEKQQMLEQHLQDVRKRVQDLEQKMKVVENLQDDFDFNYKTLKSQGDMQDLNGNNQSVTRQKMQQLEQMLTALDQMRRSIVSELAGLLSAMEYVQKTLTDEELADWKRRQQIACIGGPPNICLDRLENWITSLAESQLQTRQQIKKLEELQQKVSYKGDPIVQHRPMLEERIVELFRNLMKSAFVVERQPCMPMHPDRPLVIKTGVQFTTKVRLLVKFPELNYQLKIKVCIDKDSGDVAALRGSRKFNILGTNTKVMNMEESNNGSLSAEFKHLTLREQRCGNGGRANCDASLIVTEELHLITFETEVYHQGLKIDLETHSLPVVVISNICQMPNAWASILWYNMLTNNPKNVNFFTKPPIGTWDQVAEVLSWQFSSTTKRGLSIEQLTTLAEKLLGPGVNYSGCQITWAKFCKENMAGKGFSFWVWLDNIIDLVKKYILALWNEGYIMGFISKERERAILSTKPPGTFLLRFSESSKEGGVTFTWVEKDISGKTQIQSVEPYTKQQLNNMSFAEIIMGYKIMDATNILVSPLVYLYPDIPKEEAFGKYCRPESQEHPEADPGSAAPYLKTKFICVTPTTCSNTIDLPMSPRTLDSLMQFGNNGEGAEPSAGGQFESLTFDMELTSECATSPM

[6] = 2.5 mg/kg once daily oral gavage 28 days, vs vehicle
[7] = Western blot, 2.5 mg/kg oral 28 days

Structure (SMILES): CN(C)C(=O)Oc1cccc2c1C(=O)c1cccc(S(N)(=O)=O)c1C2=O [LLL12B]
- IL-6 induced phosphorylation of STAT3 (Y705) (STAT3 [1]): inhibited
- induction of P-STAT1 (Y701) stimulated by IFN-γ (STAT1): did not inhibit
- Cyclin D1 expression (STAT3 [2]): decreased
- expression of Cleaved Caspase-3 (STAT3 [2]): enhanced
- phosphorylation of STAT3 (STAT3 [2]): decreased
- Cyclin D1 expression (STAT3 [3]): decreased
- expression of Cleaved Caspase-3 (STAT3 [3]): enhanced
- phosphorylation of STAT3 (STAT3 [3]): decreased
- colony numbers (4T1 cells): significant reduction
- body weights [4, 6]: no obvious reduction
- tumor volume [4, 6]: significantly reduced
- tumor weight [4, 6]: reduced
- Cyclin D1 expression in tumor tissues [4, 7]: suppressed
- phosphorylation of STAT3 (Y705) in tumor tissues [4, 7]: suppressed
- cell viability (HPAC cells): significantly inhibits
- apoptosis (medulloblastoma cells): induced apoptosis
- tumor growth (medulloblastoma cells): suppressed tumor growth
- binding to the pTyr705 binding site of STAT3 (STAT3 [5]): binds directly
